Patent publication US11419335B2, “N-arylated analogues and uses thereof” (University of Florida Research Foundation, Incorporated, priority 2016, dated 2022)

What was measured:
[1] = test system: methicillin-resistant Staphylococcus aureus MRSA-2 (clinical isolate); assay: MIC broth microdilution, MRSA-2; format: cell-based; settings: Staphylococcus aureus, MRSA, Table 4; read-out: MIC MRSA-2
Protocol: (§1) The minimum inhibitory concentration (MIC) for each tested compound was determined by the broth microdilution method as recommended by the Clinical and Laboratory Standards Institute (CLSI). In a 96-well plate, eleven two-fold serial dilutions of each compound were made in a final volume of 100 μL Luria Broth. Each well was inoculated with ˜10^5 bacterial cells at the initial time of incubation, prepared from a fresh log phase culture (OD600 of 0.5 to 1.0 depending on bacterial strain). The MIC was defined as the lowest concentration of compound that prevented bacterial growth after incubating 16 to 18 hours at 37° C. (MIC values were supported by spectrophotometric readings at OD600). DMSO served as our vehicle and negative control in each microdilution MIC assay. DMSO was serially diluted with a top concentration of 1% v/v.
as §1, with “for each compound was” for “for each tested compound was”, “Standards Institute (CLSI).^6 In a” for “Standards Institute (CLSI). In a”, “concentration of test compound that” for “concentration of compound that”, “37° C. The concentration range tested for each compound during this study was 0.10 to 100 μM. DMSO served” for “37° C. (MIC values were supported by spectrophotometric readings at OD600). DMSO served”, “1% v/v. All MIC values were obtained from a minimum of three independent experiments.” for “1% v/v.”

MRSA BAA-1707 = assay: MIC broth microdilution, MRSA BAA-1707; format: cell-based, Staphylococcus aureus; settings: Staphylococcus aureus; Table 4; read-out: MIC MRSA 1707
Protocol: as §1, with “The MIC was defined as the lowest concentration of compound that prevented bacterial growth after incubating 16 to 18 hours at 37° C.” left out
Each well was inoculated with ˜10^5 bacterial cells at the initial time of incubation, prepared from a fresh log phase culture (OD600 of 0.5 to 1.0 depending on bacterial strain). […] The concentration range tested for each compound during this study was 0.10 to 100 μM. DMSO served as our vehicle and negative control in each microdilution MIC assay. DMSO was serially diluted with a top concentration of 1% v/v. All MIC values were obtained from a minimum of three independent experiments.

[2] = test system: methicillin-resistant Staphylococcus epidermidis (MRSE strain ATCC 35984); assay: MIC broth microdilution, MRSE 35984; format: cell-based; settings: Staphylococcus epidermidis; Table 4; read-out: MIC MRSE 35984
Protocol: as §1
as §1, with “for each compound was” for “for each tested compound was”, “Standards Institute (CLSI).^6 In a” for “Standards Institute (CLSI). In a”, “concentration of test compound that” for “concentration of compound that”, “37° C. The concentration range tested for each compound during this study was 0.10 to 100 μM. DMSO served” for “37° C. (MIC values were supported by spectrophotometric readings at OD600). DMSO served”, “1% v/v. All MIC values were obtained from a minimum of three independent experiments.” for “1% v/v.”

[3] = test system: vancomycin-resistant Enterococcus faecium (VRE strain ATCC 700221); assay: MIC broth microdilution, VRE 700221; format: cell-based; settings: Table 4; read-out: MIC VRE 700221
Protocol: as §1
as §1, with “for each compound was” for “for each tested compound was”, “Standards Institute (CLSI).^6 In a” for “Standards Institute (CLSI). In a”, “concentration of test compound that” for “concentration of compound that”, “37° C. The concentration range tested for each compound during this study was 0.10 to 100 μM. DMSO served” for “37° C. (MIC values were supported by spectrophotometric readings at OD600). DMSO served”, “1% v/v. All MIC values were obtained from a minimum of three independent experiments.” for “1% v/v.”

[4] = test system: Acinetobacter baumannii (ATCC 1794); assay: MIC broth microdilution, A. baumannii 1794; format: cell-based; settings: Acinetobacter baumannii, ATCC1794; Table 4; read-out: MIC A. bau. 1794
Protocol: as §1
as §1, with “for each compound was” for “for each tested compound was”, “Standards Institute (CLSI).^6 In a” for “Standards Institute (CLSI). In a”, “concentration of test compound that” for “concentration of compound that”, “37° C. The concentration range tested for each compound during this study was 0.10 to 100 μM. DMSO served” for “37° C. (MIC values were supported by spectrophotometric readings at OD600). DMSO served”, “1% v/v. All MIC values were obtained from a minimum of three independent experiments.” for “1% v/v.”

[5] = test system: Pseudomonas aeruginosa (PAO1); assay: MIC broth microdilution, PAO1; format: cell-based; settings: Pseudomonas aeruginosa, PAO1; Table 4
Protocol: as §1
as §1, with “for each compound was” for “for each tested compound was”, “Standards Institute (CLSI).^6 In a” for “Standards Institute (CLSI). In a”, “concentration of test compound that” for “concentration of compound that”, “37° C. The concentration range tested for each compound during this study was 0.10 to 100 μM. DMSO served” for “37° C. (MIC values were supported by spectrophotometric readings at OD600). DMSO served”, “1% v/v. All MIC values were obtained from a minimum of three independent experiments.” for “1% v/v.”

[6] = test system: Klebsiella pneumoniae (ATCC 13883); assay: MIC broth microdilution, K. pneumoniae 13883; format: cell-based; settings: Klebsiella pneumoniae, ATCC13883; Table 4; read-out: MIC K. pneu. 13883
Protocol: as §1
as §1, with “for each compound was” for “for each tested compound was”, “Standards Institute (CLSI).^6 In a” for “Standards Institute (CLSI). In a”, “concentration of test compound that” for “concentration of compound that”, “37° C. The concentration range tested for each compound during this study was 0.10 to 100 μM. DMSO served” for “37° C. (MIC values were supported by spectrophotometric readings at OD600). DMSO served”, “1% v/v. All MIC values were obtained from a minimum of three independent experiments.” for “1% v/v.”

[7] = test system: Escherichia coli clinical isolate (UAEC-1); assay: MIC broth microdilution, UAEC-1; format: cell-based; settings: Escherichia coli; Table 4
Protocol: as §1
as §1, with “for each compound was” for “for each tested compound was”, “Standards Institute (CLSI).^6 In a” for “Standards Institute (CLSI). In a”, “concentration of test compound that” for “concentration of compound that”, “37° C. The concentration range tested for each compound during this study was 0.10 to 100 μM. DMSO served” for “37° C. (MIC values were supported by spectrophotometric readings at OD600). DMSO served”, “1% v/v. All MIC values were obtained from a minimum of three independent experiments.” for “1% v/v.”

C. albicans SC5314 = assay: Fungal MIC susceptibility assay, C. albicans; format: cell-based, Candida albicans; settings: Candida albicans, SC5314; Table 4; antifungal
Protocol: (§2) Fungal minimum inhibition concentrations (MICs) were determined using standard microdilution methods according to the Clinical and Laboratory Standards Institute document M27-A3. The test compound concentration ranged from 0.01 to 100 μM. Amphotericin B (AmB) and itraconazole (ITC) (Fisher Scientific) were included as positive controls. DMSO, the vehicle control, was used at ≤1% v/v for these experiments. The fungal M27-A3 standard MIC assay protocol requires the following inoculum preparation protocol: The organisms were cultured onto PDA medium at 35° C. The inoculum is prepared by picking five colonies from 24-hour old culture of Candida spp. or 48-hour old culture of C. neoformans. The inoculum was suspended in 5 ml of sterile water, the resulting suspension was vortexed for 15 seconds and the cell density adjusted (by adding more sterile water) to an OD530=0.30, which yields a suspension of 1×10^6 to 5×10^6 cells per mL. The suspension was diluted 50 times and then 20 times using RPMI 1640 medium to obtain the two times test inoculum (1×10^3 to 5×10^3 cells per mL). The following steps are the same with the standard bacterial MIC protocol using 96-well plates. NOTE: RPMI 1640 medium was used in the fungal MIC assay (for both cell inoculum and compound dilution).

C. neoformans ATCC 66031 = assay: Fungal MIC susceptibility assay, C. neoformans; format: cell-based; settings: Cryptococcus neoformans, ATCC66031; Table 4; antifungal; read-out: MIC C. neof 66031
Protocol: as §2

`CCCCCCCCCCCCCCCCn1cc[n+](Cc2ccc(C[n+]3ccn(CCCCCCCCCCCCCCCC)c3C)cc2)c1C` [Compound 28] gave an MIC [1] greater than 100 µM, an MIC (MRSA BAA-1707) greater than 100 µM and an MIC [2] greater than 100 µM. It also gave an MIC [3] greater than 100 µM, an MIC [4] greater than 100 µM and an MIC [5] greater than 100 µM. The MIC [6] was greater than 100 µM, the MIC [7] was greater than 100 µM and the MIC (C. albicans SC5314) was 50 µM. It also gave an MIC (C. neoformans ATCC 66031) of 25 µM.
